Patent publication US5886046A, “Dicarbonyl-containing compounds” (priority 1996, dated 1999)

What was measured:
[1] = target: HIV-1 protease (Human immunodeficiency virus type 1 group M subtype B, UniProt P12497); experiment: biochemical
Source text: (§1) The biological activity compound (4) was compared with the known enzyme inhibitor (1) N-(2(R)-Hydroxy-1(S)-indonyl)-5(S)-[tert-butyloxycarbonyl)amino]-4(S)-hydroxy-6-(4-hydroxyphenyl)-2-(R) -[(4-hydroxyphenyl)methyl]hexanamide. See, e.g., Thompson, W. J. et al., J. Med. Chem. 1992, 35, 1685) according to methods recited in the Thompson, supra. and Heimbach, J. C. et al., Biochem. Biophys. Res. Commun. 1989, 164, 955-960.

[2] = test system: HIV-1; experiment: CIC95 (cell culture assay of Thompson, not further described); format: cell-based
Source text: as §1

CC(=O)C(=O)COc1ccc(C[C@H](C[C@H](O)[C@H](Cc2ccccc2)NC(=O)OC(C)(C)C)C(=O)N[C@H]2c3ccccc3C[C@H]2O)cc1 [Compound 4]
IC50 [1]: 0.075 nM
IC95 ([2]; Human immunodeficiency virus 1): < 6 nM
CIC95/IC50 ([2]; ratio of CIC95 to IC50): < 80
